Data set [1] concerns CYP450. As to conditions: cited from earlier work.
For data set [2] the following is noted: in vivo; cited from earlier work.
The conditions of data set [3]: early Phase I evaluation; cited from earlier work.
The subject of data set [4] is human xenograft models. As to conditions: dosed orally; cited from earlier work.
The test system of data set [5] is HER1. The experiment in a line: CEER detection of activated HER1 in HCC827 cells treated with HGF. It is filed as cell-based. As to conditions: HGF stimulation, judged by increased EC50. As to the method: (§1) In one particular embodiment, cells from a NSCLC cell line (e.g., HCC827 cells or other gefitinib sensitive lung adenocarcinoma cells with EGFR-activating mutations; American Type Culture Collection, Manassas, Va.) were treated with different concentrations of ligand or signaling molecule (e.g., the ligand for the cMET receptor, HGF). The levels of expression and activation of proteins associated with cancer were measured in the treated cells with high sensitivity using CEER arrays. By varying the amount of ligand exposed to the cancer cells, the expression profiles of the analyzed proteins were correlated to the amount of ligand used to stimulate the cells. Dose response curves were used to calculate EC50 values which can be used to interpret the inhibition and activation states of the analyzed proteins.
(§2) FIG. 10 illustrates the difference in protein expression in HCC827 cells following HGF stimulation. […] FIG. 10E illustrates that HGF and cMET binding interferes with HER3 activation, and HER1 and HER2 to a lesser extent (see also, FIGS. 10C and 10D).

The subject of data set [6] is HER2. The experiment in a line: CEER detection of activated HER2 in HCC827 cells treated with HGF. The note with it: HGF stimulation, judged by increased EC50. Type of data set: cell-based. Here is the method: as §1, §2
Data set [7] addresses T1, cMET (Homo sapiens, UniProt P08581).
T1 construct: host or cells: HCC827
The experiment in a line: CEER detection of activated cMET in HCC827 cells treated with HGF. Type of data set: cell-based. The note with it: HGF stimulation, FIG. 10B. Here is the method: as §1, §2

The subject of data set [8] is HER3. The experiment in a line: CEER detection of activated HER3 in HCC827 cells treated with HGF. Type of data set: cell-based. The note with it: HGF stimulation, judged by increased EC50. As to the method:
as §1, §2

T1 sequence (P08581 25-1390): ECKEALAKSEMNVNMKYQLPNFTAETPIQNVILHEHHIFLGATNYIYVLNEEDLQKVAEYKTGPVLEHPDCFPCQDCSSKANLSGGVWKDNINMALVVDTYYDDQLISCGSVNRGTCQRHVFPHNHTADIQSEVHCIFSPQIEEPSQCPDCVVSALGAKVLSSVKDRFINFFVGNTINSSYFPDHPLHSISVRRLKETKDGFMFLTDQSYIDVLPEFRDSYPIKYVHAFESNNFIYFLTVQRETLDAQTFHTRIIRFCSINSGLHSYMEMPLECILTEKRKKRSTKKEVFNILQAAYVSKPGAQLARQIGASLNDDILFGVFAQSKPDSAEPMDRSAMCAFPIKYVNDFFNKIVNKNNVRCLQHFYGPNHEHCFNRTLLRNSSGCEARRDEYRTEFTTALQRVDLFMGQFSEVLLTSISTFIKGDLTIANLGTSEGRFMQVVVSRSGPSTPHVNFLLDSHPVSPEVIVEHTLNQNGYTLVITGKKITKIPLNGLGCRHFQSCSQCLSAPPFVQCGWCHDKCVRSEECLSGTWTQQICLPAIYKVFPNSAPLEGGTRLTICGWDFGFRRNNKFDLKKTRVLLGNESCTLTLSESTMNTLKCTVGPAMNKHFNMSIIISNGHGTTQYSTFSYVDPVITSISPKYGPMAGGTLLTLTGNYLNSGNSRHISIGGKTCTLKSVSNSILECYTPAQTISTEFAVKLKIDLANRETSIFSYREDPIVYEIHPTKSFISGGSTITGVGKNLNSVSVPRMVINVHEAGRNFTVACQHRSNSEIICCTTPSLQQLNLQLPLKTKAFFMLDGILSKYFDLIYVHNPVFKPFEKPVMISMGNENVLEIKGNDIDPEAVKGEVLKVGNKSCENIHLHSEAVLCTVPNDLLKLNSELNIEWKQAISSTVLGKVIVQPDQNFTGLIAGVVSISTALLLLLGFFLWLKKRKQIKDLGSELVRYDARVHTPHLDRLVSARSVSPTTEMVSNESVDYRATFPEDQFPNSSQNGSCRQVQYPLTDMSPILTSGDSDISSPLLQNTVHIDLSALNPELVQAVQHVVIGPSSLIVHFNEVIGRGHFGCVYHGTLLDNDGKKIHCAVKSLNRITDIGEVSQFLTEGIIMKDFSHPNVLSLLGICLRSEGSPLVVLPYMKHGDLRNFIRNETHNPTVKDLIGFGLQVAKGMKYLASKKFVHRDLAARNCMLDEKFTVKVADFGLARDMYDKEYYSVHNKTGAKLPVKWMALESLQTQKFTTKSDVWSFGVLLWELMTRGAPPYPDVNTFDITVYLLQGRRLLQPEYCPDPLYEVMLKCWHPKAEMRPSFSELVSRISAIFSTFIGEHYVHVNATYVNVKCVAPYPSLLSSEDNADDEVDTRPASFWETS

Regarding `COc1cc2c(Oc3ccc(NC(=O)C4(C(=O)Nc5ccc(F)cc5)CC4)cc3F)ccnc2cc1OCCCN1CCOCC1` [GSK 1363089/XL880], the “CYP450 substrate / inhibitor / inducer status” value in data set [1] is “substrate, but not an inhibitor or inducer”. For the same compound, the oral bioavailability result in data set [2] is given as “good oral bioavailability”.

As to `CN(C[C@@H]1COCCO1)S(=O)(=O)Nc1ccc2ccc3ncc(-c4cnn(C)c4)cc3c(=O)c2c1` [MK-2461], the tolerability entry in data set [3] is reported as “well tolerated”.

Turning to `Cn1cc(-c2ccc3nnc(Sc4ccc5ncccc5c4)n3n2)cn1` [SGX523], in data set [4], the antitumor activity result is “potent antitumor activity” and the toxicity entry was “no overt toxicity”.

“HGF: hepatocyte growth factor, the ligand for the cMET receptor”: the HER1 activation result in data set [5] is given as “decreased”. Further, the HER2 activation result in data set [6] was “decreased”. Besides, the cMET activation result in data set [7] is on record as “activated cMET effectively”. Besides, the HER3 activation entry in data set [8] is given as “decreased”.

The values above are taken from patent US20140024548A1, “DRUG SELECTION FOR MALIGNANT CANCER THERAPY USING ANTIBODY-BASED ARRAYS” (NESTEC S.A., priority 2010, published 2014).
